In ChEMBL document CHEMBL5344406, “1,2,3-Triazole-containing hybrids with potential antibacterial activity against ESKAPE pathogens” (2022):
Values after ≈ are worked out from the molar mass of the structure shown.

Assays:
Assay type in all cases: functional
Staphylococcus aureus [1] = assay: Antibacterial activity against Staphylococcus aureus ATCC 25923 assessed as bacterial growth inhibition incubated for 18 to 20 hrs by broth microdilution method; conditions: time 18-20 hrs
Escherichia coli [2] = assay: Antibacterial activity against Escherichia coli ATCC 25922 assessed as bacterial growth inhibition incubated for 18 to 20 hrs by broth microdilution method; conditions: time 18-20 hrs
Acinetobacter baumannii = assay: Antibacterial activity against Acinetobacter baumannii ATCC 19606 assessed as bacterial growth inhibition incubated for 18 to 20 hrs by broth microdilution method; conditions: time 18-20 hrs
Pseudomonas aeruginosa [3] = assay: Antibacterial activity against Pseudomonas aeruginosa ATCC 27853 assessed as bacterial growth inhibition incubated for 18 to 20 hrs by broth microdilution method; conditions: time 18-20 hrs
Klebsiella pneumoniae = assay: Antibacterial activity against Klebsiella pneumoniae ATCC 29665 assessed as bacterial growth inhibition incubated for 18 to 20 hrs by broth microdilution method; conditions: time 18-20 hrs
Escherichia coli [4] = assay: Antibacterial activity against Escherichia coli assessed as bacterial growth inhibition
Pseudomonas aeruginosa [5] = assay: Antibacterial activity against Pseudomonas aeruginosa assessed as bacterial growth inhibition
[6] = test system: Staphylococcus epidermidis; assay: Antibacterial activity against Staphylococcus epidermidis assessed as bacterial growth inhibition by serial dilution method
Escherichia coli [7] = assay: Antibacterial activity against Escherichia coli assessed as bacterial growth inhibition by serial dilution method
Bacillus subtilis = assay: Antibacterial activity against Bacillus subtilis assessed as bacterial growth inhibition by serial dilution method
Pseudomonas aeruginosa [8] = assay: Antibacterial activity against Pseudomonas aeruginosa assessed as bacterial growth inhibition by serial dilution method
Staphylococcus aureus [9] = assay: Antibacterial activity against Staphylococcus aureus assessed as bacterial growth inhibition by serial dilution method

SMILES	MIC (Staphylococcus aureus [1]) [µg/mL]	MIC (Escherichia coli [2]) [µg/mL]	MIC (Acinetobacter baumannii) [µg/mL]	MIC (Pseudomonas aeruginosa [3]) [µg/mL]	MIC (Klebsiella pneumoniae) [µg/mL]	MIC (Escherichia coli [4]) [µg/mL]	MIC (Pseudomonas aeruginosa [5]) [µg/mL]	MIC [6] [µg/mL]	MIC (Escherichia coli [7]) [µg/mL]	MIC (Bacillus subtilis) [µg/mL]	MIC (Pseudomonas aeruginosa [8]) [µg/mL]	MIC (Staphylococcus aureus [9]) [µg/mL]
COc1ccc(C[C@H](NC(=O)Cn2cc(CN3CCN(c4cc5c(cc4F)c(=O)c(C(=O)O)cn5C4CC4)CC3)nn2)C(=O)O)cc1OC	0.25 (≈ 0.369 µM)	0.25 (≈ 0.369 µM)	0.25 (≈ 0.369 µM)	0.25 (≈ 0.369 µM)	0.25 (≈ 0.369 µM)	–	–	–	–	–	–	–
NC(=O)N/N=C/c1ccccc1OCc1cn(-c2ccc(F)cc2)nn1	–	–	–	–	–	–	–	25 (≈ 70.6 µM)	25 (≈ 70.6 µM)	25 (≈ 70.6 µM)	25 (≈ 70.6 µM)	25 (≈ 70.6 µM)
NC(=O)N/N=C/c1ccccc1OCc1cn(-c2ccc(Cl)cc2)nn1	–	–	–	–	–	–	–	25 (≈ 67.4 µM)	25 (≈ 67.4 µM)	25 (≈ 67.4 µM)	25 (≈ 67.4 µM)	25 (≈ 67.4 µM)
NC(=S)N/N=C/c1ccccc1OCc1cn(Cc2ccc(Br)cc2)nn1	–	–	–	–	–	–	–	6.25 (≈ 14 µM)	6.25 (≈ 14 µM)	6.25 (≈ 14 µM)	6.25 (≈ 14 µM)	6.25 (≈ 14 µM)
O=C(Cn1cc(CN2CCN(c3cc4c(cc3F)c(=O)c(C(=O)O)cn4C3CC3)CC2)nn1)N[C@@H](Cc1cc(=O)[nH]c2ccccc12)C(=O)O	0.25 (≈ 0.365 µM)	0.25 (≈ 0.365 µM)	0.25 (≈ 0.365 µM)	0.25 (≈ 0.365 µM)	0.25 (≈ 0.365 µM)	–	–	–	–	–	–	–
O=C(O)c1cn(C2CC2)c2cc(N3CCN(Cc4cn(CC(=O)N5CCC[C@H]5C(=O)O)nn4)CC3)c(F)cc2c1=O	0.25 (≈ 0.44 µM)	0.25 (≈ 0.44 µM)	0.25 (≈ 0.44 µM)	0.25 (≈ 0.44 µM)	0.25 (≈ 0.44 µM)	–	–	–	–	–	–	–
NC(=S)N/N=C/c1cccc(OCc2cn(Cc3ccc(Br)cc3)nn2)c1	–	–	–	–	–	–	–	6.25 (≈ 14 µM)	6.25 (≈ 14 µM)	6.25 (≈ 14 µM)	6.25 (≈ 14 µM)	6.25 (≈ 14 µM)
O=C(Cn1cc(CN2CCN(c3cc4c(cc3F)c(=O)c(C(=O)O)cn4C3CC3)CC2)nn1)N[C@@H](Cc1ccccn1)C(=O)O	0.25 (≈ 0.404 µM)	0.25 (≈ 0.404 µM)	0.25 (≈ 0.404 µM)	0.25 (≈ 0.404 µM)	0.25 (≈ 0.404 µM)	–	–	–	–	–	–	–
COC(=O)[C@H](C)NC(=O)c1cc(=O)n(Cc2cn(C3O[C@H]4OC(C)(C)O[C@H]4[C@@H]4OC(C)(C)OC[C@@H]34)nn2)c2ccccc12 (some centres not stated)	–	–	–	–	–	9.75 (≈ 16.3 µM)	–	–	–	–	–	–
O=C(Cn1cc(CN2CCN(c3cc4c(cc3F)c(=O)c(C(=O)O)cn4C3CC3)CC2)nn1)N[C@@H](CSc1ccccc1)C(=O)O	0.25 (≈ 0.385 µM)	0.25 (≈ 0.385 µM)	0.25 (≈ 0.385 µM)	0.25 (≈ 0.385 µM)	0.25 (≈ 0.385 µM)	–	–	–	–	–	–	–

Other lines, results leading:

MIC (Staphylococcus aureus [1]) [µg/mL]	MIC (Escherichia coli [2]) [µg/mL]	MIC (Acinetobacter baumannii) [µg/mL]	MIC (Pseudomonas aeruginosa [3]) [µg/mL]	MIC (Klebsiella pneumoniae) [µg/mL]	MIC (Escherichia coli [4]) [µg/mL]	MIC (Pseudomonas aeruginosa [5]) [µg/mL]	MIC [6] [µg/mL]	MIC (Escherichia coli [7]) [µg/mL]	MIC (Bacillus subtilis) [µg/mL]	MIC (Pseudomonas aeruginosa [8]) [µg/mL]	MIC (Staphylococcus aureus [9]) [µg/mL]	SMILES
–	–	–	–	–	1.56 (≈ 3.29 µM)	1.56 (≈ 3.29 µM)	–	–	–	–	–	COc1ccc(Cn2cc(COc3ccc(/C=C/C(=O)c4c(O)cc(C)oc4=O)cc3)nn2)cc1
–	–	–	–	–	–	–	3.12 (≈ 7.7 µM)	3.12 (≈ 7.7 µM)	3.12 (≈ 7.7 µM)	3.12 (≈ 7.7 µM)	–	O=C(Nc1ccc(F)cc1)OCc1cn(Cc2ccc(Br)cc2)nn1
0.25 (≈ 0.365 µM)	0.25 (≈ 0.365 µM)	0.25 (≈ 0.365 µM)	0.25 (≈ 0.365 µM)	0.25 (≈ 0.365 µM)	–	–	–	–	–	–	–	O=C(Cn1cc(CN2CCN(c3cc4c(cc3F)c(=O)c(C(=O)O)cn4C3CC3)CC2)nn1)N[C@@H](Cc1ccccc1C(F)(F)F)C(=O)O
0.25 (≈ 0.371 µM)	0.25 (≈ 0.371 µM)	0.25 (≈ 0.371 µM)	0.25 (≈ 0.371 µM)	0.25 (≈ 0.371 µM)	–	–	–	–	–	–	–	C=CCOc1ccc(C[C@H](NC(=O)Cn2cc(CN3CCN(c4cc5c(cc4F)c(=O)c(C(=O)O)cn5C4CC4)CC3)nn2)C(=O)O)cc1
–	–	–	–	–	–	–	25 (≈ 74.3 µM)	25 (≈ 74.3 µM)	25 (≈ 74.3 µM)	25 (≈ 74.3 µM)	25 (≈ 74.3 µM)	NC(=O)N/N=C/c1ccccc1OCc1cn(-c2ccccc2)nn1
